Assay results: US20250154198A1, “PEPTIDE INHIBITORS OF INTERLEUKIN-23 RECEPTOR” (Zealand Pharma A/S, priority 2021, published 2025)
Like-named read-outs stand apart in the source and are kept apart here. *1 amine or outer side, *2 acyl side, *3 side chain or, on linkers, in order; H or OH if unused. Where a SMILES comes first, the peptide text is derived from it. Bridges are numbered along the chain shown (N, C = ends). [ ]: non-standard residue; d: D form. αMeAla(3-pyridyl) = C[C@](N)(Cc1cccnc1)C(=O)O; Phe(3,4-Me2) = Cc1ccc(C[C@H](N)C(=O)O)cc1C; Phe(4-Cl) = N[C@@H](Cc1ccc(Cl)cc1)C(=O)O; αMeW = C[C@](N)(Cc1c[nH]c2ccccc12)C(=O)O; Phe(4-NH2) = Nc1ccc(C[C@H](N)C(=O)O)cc1; 2Nal = N[C@@H](Cc1ccc2ccccc2c1)C(=O)O; AEF = NCCOc1ccc(C[C@H](N)C(=O)O)cc1; X1 = O=C(Cc1ccc(CN[*:1])cc1)[*:2]; αMeL = CC(C)C[C@](C)(N)C(=O)O; CH2COCH2 = O=C(C[*:1])C[*:2]; αMeV = CC(C)[C@](C)(N)C(=O)O; 3Amb = NCc1cccc(C(=O)O)c1; Dab = NCC[C@H](N)C(=O)O

Key:
human IL-23R = molecular target: T1, human IL-23R (Homo sapiens, UniProt Q5VWK5); assay: Binding assay (NanoBRET displacement of fluorophore-labelled reference compound) for estimating binding affinity to human IL-23R
T1 construct: UniProtKB—Q5VWK5, amino acids 22-629; secretion signal of the plasmid (Promega N1371); expressed in transfected cells
T1 sequence (Q5VWK5 22-629): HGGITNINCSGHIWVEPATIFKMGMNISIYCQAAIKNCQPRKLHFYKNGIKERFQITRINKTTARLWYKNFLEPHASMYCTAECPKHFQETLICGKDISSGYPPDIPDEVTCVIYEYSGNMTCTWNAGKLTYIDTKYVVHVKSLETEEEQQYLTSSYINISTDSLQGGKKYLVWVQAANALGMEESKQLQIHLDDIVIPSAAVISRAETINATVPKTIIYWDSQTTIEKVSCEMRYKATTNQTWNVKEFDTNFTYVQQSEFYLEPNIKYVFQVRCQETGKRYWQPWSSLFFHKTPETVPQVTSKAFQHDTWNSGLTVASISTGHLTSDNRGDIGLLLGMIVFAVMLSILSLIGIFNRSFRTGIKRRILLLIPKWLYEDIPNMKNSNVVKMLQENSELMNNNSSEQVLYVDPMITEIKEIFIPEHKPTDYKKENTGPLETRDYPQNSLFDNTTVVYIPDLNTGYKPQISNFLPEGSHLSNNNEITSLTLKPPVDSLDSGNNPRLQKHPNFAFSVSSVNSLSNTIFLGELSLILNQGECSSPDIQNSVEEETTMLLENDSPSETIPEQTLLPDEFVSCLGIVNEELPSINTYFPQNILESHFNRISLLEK

[1] = Peptide stability in simulated intestinal fluid (SIF); type: in vitro ADME; conditions: pig, Table 3-2, porcine pancreatin, pH 6.8, 37° C., 10 μM; for remaining at 1 h, 10 μM: read-out: SIF (% remaining 1 h); for remaining at 4 h, 10 μM: read-out: SIF (% remaining 4 h)
Procedure, shortened: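 Peptides incubated at 37°C with gentle shaking in SGF (NaCl, HCl, pH 1.2) or SIF (phosphate pH 6.8 with 10 g/L porcine pancreatin). Samples analysed by LC-HRMS; percent remaining at each timepoint calculated from absolute peak areas relative to time zero.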

[2] = Peptide stability in simulated gastric fluid (SGF); type: in vitro ADME; conditions: pig, Table 3-3, porcine pepsin, pH 1.2, 37° C., 10 μM; for remaining at 1 h, 10 μM: read-out: SGF (% remaining 1 h); for remaining at 4 h, 10 μM: read-out: SGF (% remaining 4 h)
Procedure: Determination of Peptide Stability in Simulated Gastric Fluid (SGF) and Simulated Intestinal Fluid (SIF)
SGF was prepared by dissolving sodium chloride (0.2 g) in 50 mL of water. A volume of 0.7 mL of 10 M HCl was added to adjust the pH of the solution to 1.2 and the volume made up to 100 mL with water. […] SIF was prepared by dissolving monobasic potassium phosphate (0.68 g) in 50 mL of water and adjusting the pH to 6.8 with 1 M NaOH. The volume was subsequently made up to 100 mL with water. 200 mg porcine pancreatin (P1625, Sigma Aldrich) was gently dissolved into 20 mL preheated (37° C.) solution (10 g/L) immediately prior to the incubation.
The incubation was performed at 37° C. with gentle shaking. […] After the last timepoint, the sampling plate was mixed for 10 min on a shaking table and centrifuged 10 min at 2200 g. 70 μL resulting supernatant was diluted with 150 μL water, mixed and centrifugated before analysis by liquid chromatography high resolution mass spectrometry. […] Percent remaining at each timepoint was calculated relative to timepoint zero based on absolute peak areas.

[3] = Table 3-1, read-out: Ki hIL-23R
[4] = simulated intestinal fluid (SIF) with porcine pancreatin
[5] = simulated gastric fluid (SGF) with porcine pepsin

Compound	Ki (human IL-23R; [3])	remaining at 1 h, 10 μM [1, 4]	remaining at 4 h, 10 μM [1, 4]	remaining at 4 h, 10 μM [2, 5]	remaining at 1 h, 10 μM [2, 5]	Ki (human IL-23R)	remaining at 1 h, 10 μM [1]	remaining at 4 h, 10 μM [1]	remaining at 1 h, 10 μM [2]	remaining at 4 h, 10 μM [2]
CC(C)C[C@@H]1NC(=O)[C@H](Cc2c[nH]c3ccccc23)NC(=O)[C@H](Cc2c[nH]c3ccccc23)NC(=O)[C@@H]2CSCC(=O)CSC[C@H](NC(=O)[C@H](CO)NC(=O)[C@@H](NC(=O)[C@@H](N)CC(C)C)CSCC(=O)CSC[C@@H](C(=O)N[C@@H](CCCNC(=N)N)C(N)=O)NC1=O)C(=O)N[C@@H](Cc1c[nH]c3ccccc13)C(=O)N[C@@H](CCC(N)=O)C(=O)N2 [Compound 2, H-LC(1a)SC(2a)WQC(2a)WWLC(1a)R-[NH2]] (HELM PEPTIDE1{L.C.S.C.W.Q.C.W.W.L.C.R.[am]}|CHEM1{[O=C(C[*:1])C[*:2]]}|CHEM2{[O=C(C[*:1])C[*:2]]}$PEPTIDE1,CHEM1,2:R3-1:R1|PEPTIDE1,CHEM1,11:R3-1:R2|PEPTIDE1,CHEM2,4:R3-1:R1|PEPTIDE1,CHEM2,7:R3-1:R2$$$V2.0)	–	–	–	–	–	32.3 nM	0%	0%	6%	1%
CC(C)C[C@@H]1NC(=O)[C@H](Cc2ccc3ccccc3c2)NC(=O)[C@H](Cc2ccc(OCCN)cc2)NC(=O)[C@@H]2CSCC(=O)CSC[C@H](NC(=O)[C@H](CO)NC(=O)c3cccc(c3)CNC(=O)CC[C@@H](C(=O)N[C@@H](CCCNC(=N)N)C(N)=O)NC1=O)C(=O)N[C@@H](Cc1c[nH]c3ccccc13)C(=O)N[C@@H](CCC(N)=O)C(=O)N2 [Compound 39, [(3-Aminomethyl)benzoyl](1c)*SC(2a)WQC(2a)[Y(2-aminoethoxy)][2-Nal]LE(1c)R-[NH2]] ([3Amb]SCWQC[AEF][2Nal]LER-NH2; linker 3-6 via CH2COCH2; lactam N-10)	1.4 nM	0%	0%	–	90%	–	–	–	–	–
CC(C)C[C@]1(C)NC(=O)[C@H](Cc2ccc3ccccc3c2)NC(=O)[C@H](Cc2ccc(OCCN)cc2)NC(=O)[C@@H]2CSCC(=O)CSC[C@H](NC(=O)[C@H](CO)NC(=O)c3cccc(c3)CNC(=O)CC[C@@H](C(=O)N[C@@H](Cc3ccc(N)cc3)C(N)=O)NC1=O)C(=O)N[C@@H](Cc1c[nH]c3ccccc13)C(=O)N[C@@H](CCC(N)=O)C(=O)N2 [Compound 45, [(3-Aminomethyl)benzoyl](1c)*SC(2a)WQC(2a)[Y(2-aminoethoxy)][2-Nal][2-Me-Leu]E(1c)[F(4-NH2)]-[NH2]] ([3Amb]SCWQC[AEF][2Nal][αMeL]E[Phe(4-NH2)]-NH2; linker 3-6 via CH2COCH2; lactam N-10)	12 nM	–	34%	84%	76%	–	–	–	–	–
CC[C@H](C)[C@@H]1NC(=O)Cc2ccc(cc2)CNC(=O)CC[C@@H](C(=O)N[C@@H](CCN)C(=O)N[C@@](C)(Cc2cccnc2)C(N)=O)NC(=O)[C@](C)(C(C)C)NC(=O)[C@H](Cc2ccc(C)c(C)c2)NC(=O)[C@H](Cc2ccc(Cl)cc2)NC(=O)[C@@H]2CCNC(=O)CC[C@H](NC1=O)C(=O)N[C@@H](Cc1c[nH]c3ccccc13)C(=O)N[C@@H](CCC(N)=O)C(=O)N2 [Compound 171, [4-Aminomethyl-phenylacetyl](1c)*IE(2c)WQ[Dab](2c)[F(4-Cl)][F(3,4-Me)][2-Me-Val]E(1c)[Dab][2-Me-3-(3-Pyridyl)-Ala]-[NH2]] ([X1]IEWQ[Dab][Phe(4-Cl)][Phe(3,4-Me2)][αMeV]E[Dab][αMeAla(3-pyridyl)]-NH2; lactam 3-6, N-10)	–	–	68%	75%	–	–	–	–	–	–
CC(=O)N[C@H]1CCSC[C@@H](C(=O)N[C@@H](Cc2ccc(OCCN)cc2)C(=O)N[C@@H](Cc2c[nH]c3ccccc23)C(=O)N[C@@](C)(CCCCN)C(=O)N[C@@H](CCC(=O)O)C(=O)N[C@@H](CC(N)=O)C(=O)NCC(N)=O)NC(=O)[C@H](CCC(N)=O)NC(=O)[C@H](Cc2c[nH]c3ccccc23)NC(=O)[C@H]([C@@H](C)O)NC(=O)[C@H](CCC(N)=O)NC1=O [Compound C, [Ac]-[Abu](16i)QTWQC(16i)[Y(2-aminoethoxy)]W[2-Me-Lys]ENG-[NH2], reference compound]	–	92%	76%	–	100%	–	–	–	–	–

Now from value to compound, other results behind:

Ki (human IL-23R; [3])	remaining at 1 h, 10 μM [1, 4]	remaining at 4 h, 10 μM [1, 4]	remaining at 4 h, 10 μM [2, 5]	remaining at 1 h, 10 μM [2, 5]	Compound	Ki (human IL-23R)	remaining at 1 h, 10 μM [1]	remaining at 4 h, 10 μM [1]	remaining at 1 h, 10 μM [2]	remaining at 4 h, 10 μM [2]
2.56 nM	29%	5%	84%	–	CC(C)C[C@]1(C)NC(=O)[C@H](Cc2ccc3ccccc3c2)NC(=O)[C@H](Cc2ccc(OCCN)cc2)NC(=O)[C@@H]2CSCC(=O)CSC[C@H](NC(=O)[C@H](CO)NC(=O)c3cccc(c3)CNC(=O)CC[C@@H](C(=O)N[C@@H](CCCNC(=N)N)C(N)=O)NC1=O)C(=O)N[C@@H](Cc1c[nH]c3ccccc13)C(=O)N[C@@H](CCC(N)=O)C(=O)N2 [Compound 38, [(3-Aminomethyl)benzoyl](1c)*SC(2a)WQC(2a)[Y(2-aminoethoxy)][2-Nal][2-Me-Leu]E(1c)R-[NH2]] ([3Amb]SCWQC[AEF][2Nal][αMeL]ER-NH2; linker 3-6 via CH2COCH2; lactam N-10)	–	–	–	–	–
4.87 nM	79%	–	73%	–	CC(C)C[C@]1(C)NC(=O)[C@H](Cc2ccc3ccccc3c2)NC(=O)[C@H](Cc2ccc(OCCN)cc2)NC(=O)[C@@H]2CSCC(=O)CSC[C@H](NC(=O)[C@H](CO)NC(=O)c3cccc(c3)CNC(=O)CC[C@@H](C(=O)N[C@@H](CO)C(N)=O)NC1=O)C(=O)N[C@@H](Cc1c[nH]c3ccccc13)C(=O)N[C@@H](CCC(N)=O)C(=O)N2 [Compound 44, [(3-Aminomethyl)benzoyl](1c)*SC(2a)WQC(2a)[Y(2-aminoethoxy)][2-Nal][2-Me-Leu]E(1c)S-[NH2]]	–	–	–	–	–
48.2 nM	9%	0%	66%	83%	CC(C)C[C@H]1NC(=O)[C@H](Cc2ccc3ccccc3c2)NC(=O)[C@H](Cc2ccc(OCCN)cc2)NC(=O)[C@@H]2CSCC(=O)CSC[C@H](NC(=O)[C@H](CO)NC(=O)c3cccc(c3)CNC(=O)CC[C@@H](C(=O)N[C@@H](Cc3ccc(O)cc3)C(N)=O)NC1=O)C(=O)N[C@@H](Cc1c[nH]c3ccccc13)C(=O)N[C@@H](CCC(N)=O)C(=O)N2 [Compound 46, [(3-Aminomethyl)benzoyl](1c)*SC(2a)WQC(2a)[Y(2-aminoethoxy)][2-Nal][{d}L]E(1c)Y-[NH2]] ([3Amb]SCWQC[AEF][2Nal][dL]EY-NH2; linker 3-6 via CH2COCH2; lactam N-10)	–	–	–	–	–
–	–	70%	99%	–	CC[C@H](C)[C@@H]1NC(=O)Cc2ccc(cc2)CNC(=O)CC[C@@H](C(=O)N[C@@H](CCN)C(=O)N[C@@](C)(Cc2cccnc2)C(N)=O)NC(=O)[C@](C)(C(C)C)NC(=O)[C@H](Cc2ccc(C)c(C)c2)NC(=O)[C@](C)(Cc2c[nH]c3ccccc23)NC(=O)[C@@H]2CCNC(=O)CC[C@H](NC1=O)C(=O)N[C@@H](Cc1c[nH]c3ccccc13)C(=O)N[C@@H](CCC(N)=O)C(=O)N2 [Compound 172, [4-Aminomethyl-phenylacetyl](1c)*IE(2c)WQ[Dab](2c)[alpha-Me-Trp][F(3,4-Me)][2-Me-Val]E(1c)[Dab][2-Me-3-(3-Pyridyl)-Ala]-[NH2]] ([X1]IEWQ[Dab][αMeW][Phe(3,4-Me2)][αMeV]E[Dab][αMeAla(3-pyridyl)]-NH2; lactam 3-6, N-10)	–	–	–	–	–
